The results in this text go back to patent US20240156767A1, “SCREENING METHOD FOR GLP-1 SECRETION REGULATION AGENT, GLP-1 SECRETION REGULATION AGENT, COMPOSITION FOR PREVENTING OR AMELIORATING DIABETES, OBESITY, POSTPRANDIAL HYPERGLYCEMIA, NEURODEGENERATIVE DISEASE, HYPOGLYCEMIA, ADIPOSITY, OR NESIDIOBLASTOSIS, METHOD FOR PROMOTING SECRETION OF GLP-1 IN …” (The Nisshin OilliO Group, Ltd., priority 2021, published 2024).

SMILES strings stand for the structures.

What all share (assay type): in vivo
Assay [1] relates to GPR84 knockout mice. In words: Administration test: plasma GLP-1 concentration in GPR84 knockout mice (ELISA). The note with it: GPR84KO mice; 1000 mg/kg oral; 120 minutes after administration; mean±standard error. The method, then: An administration test was carried out by the following method to examine an effect of administration of various medium chain fatty acids (capric acid or lauric acid, both are a free form) to mice on plasma GLP-1 secretion. The above medium chain fatty acids correspond to GPR84 agonists. A control sample (carboxymethylcellulose), a capric acid sample, and a lauric acid sample were prepared in the same manner as in the <Test 2> above. Based on the following method, any one of a control sample, a capric acid sample, and a lauric acid sample was administered to mice in each group. In this test, two types of mice, that is, wild-type mice and GPR84 knockout mice, were prepared. As wild-type mice, 18 C57BL/6 male mice at 7- to 9-weeks old (purchased from Japan SLC, Inc.) were used. […] Plasma was prepared by a conventional method from the blood obtained before and after sample administration, and the plasma GLP-1 concentration (pM) was measured. The plasma GLP-1 concentration was measured by ELISA using a commercially available kit (trade name “Glucagon Like Peptide-1 (Active) ELIS”, manufactured by Sigma-Aldrich). The data in FIG. 3 and Table 3 are expressed as relative values (Relative GLP-1) when the average value of plasma GLP-1 concentration before administration of each sample is set to “1”, and expressed as “mean±standard error of the relative values”. […]
(In general: In an ELISA, binding on a coated surface is turned into a signal by an enzyme label.)

The subject of another assay is C57BL/6 male mice. In words: Glucose tolerance test in mice: plasma insulin concentration (ELISA). The note with it: 1000 mg/kg oral; for Plasma insulin concentration: glucose 2.5 g/kg 60 minutes after sample, blood 30 minutes after glucose, mean±standard error; for Effect on plasma insulin concentration (in words): wild-type mice, glucose tolerance test. The method, then: A glucose tolerance test was carried out by the following method to examine the effect by administration of various medium chain fatty acids (capric acid or lauric acid, both are a free body) to mice on plasma insulin secretion at that time. Note here that the above-mentioned medium chain fatty acid corresponds to a GPR84 agonist. Ten tablets of PBS (trade name “Phosphate Buffered Salts Tablets”, manufactured by Takara Bio Inc.) were dissolved in distilled water, and the total volume was adjusted to 1000 ml. To 10 ml of the prepared solution, 50 mg of carboxymethyl cellulose (trade name “Carboxymethyl cellulose sodium”, manufactured by FUJIFILM Wako Pure Chemical Industries, Ltd.) was added and mixed to obtain a carrier solution. To the obtained carrier solution, 2 g of capric acid (trade name “Decanoic acid”, manufactured by FUJIFILM Wako Pure Chemical Industries, Ltd.) was added, and mixed while heating to obtain a capric acid sample. A carrier solution was obtained in the same manner as in the (1-2) above. To the obtained carrier solution, 2 g of lauric acid (trade name “Dodecanoic acid”, manufactured by Sigma-Aldrich) was added and mixed while heating to obtain a lauric acid sample. Ten tablets of PBS (trade name “Phosphate Buffered Salts Tablets”, manufactured by Takara Bio Inc.) were dissolved in distilled water, and the total amount was adjusted to 1000 ml. To 10 ml of the prepared solution, 2.5 g of glucose (trade name “D(+)-glucose”, manufactured by FUJIFILM Wako Pure Chemical Industries, Ltd.) was added to obtain a glucose liquid. Based on the following method, any one of a control sample, a capric acid sample, and a lauric acid sample was administered to mice in each group, and then a glucose solution was further administered to carry out a glucose tolerance test. C57BL/6 male mice at 7- to 9-weeks old were purchased from Japan SLC, Inc. Each mouse (15 mice in total) was acclimatized for 1 week and then divided into three groups (a control sample administration group, a capric acid sample administration group, and a lauric acid sample administration group) so that the average body weight was uniform. […] Plasma was prepared from the obtained blood by a conventional method, and the plasma insulin concentration (pg/ml) was measured. The plasma insulin concentration was measured by ELISA using a commercially available kit (trade name “Revis (trademark) Insulin-Mouse (RTU)”, manufactured by Fujifilm Wako Shibayagi Co., Ltd.). In the data of FIG. 2 and Table 2, the measured value of the plasma insulin concentration was expressed as “mean±standard error”. Dunnet's test was used to test significant differences between trials, and significant differences were determined to exist when the risk rate was less than 5% (*p<0.05).

The subject of assay [2] is GPR84 knockout mice. Briefly: Same test as Test 2 (glucose tolerance, plasma insulin) using GPR84 knockout mice, data not shown. The note with it: effect lower than with wild-type mice. The source says:
However, the increasing effect was lower than with wild-type mice. […] It was inferred that the total insulin secretion was reduced compared with that of wild-type mice.

On to `CCCCCCCCCC(=O)O` [Capric acid, capric acid (n-decanoic acid)], for which, in the assay with GPR84 knockout mice [1], the “Relative GLP-1 (plasma GLP-1 concentration relative to before administration = 1)” value worked out at 0.63 ± 0.2. Further, in the assay on C57BL/6 male mice, the Plasma insulin concentration is 395.1 ± 26.1 * pg/ml and the “Effect on plasma insulin concentration (in words)” value is listed as “significantly increased plasma insulin concentrations”. The “Effect on plasma insulin concentration (in words)” value in the assay with GPR84 knockout mice [2] was “increased the plasma insulin concentration”.
The like results for `CCCCCCCCCCCC(=O)O` [Lauric acid, lauric acid] were, in that order, 0.68 ± 0.19, 702.8 ± 84.4 * pg/ml, “significantly increased plasma insulin concentrations” and “increased the plasma insulin concentration”.
